Results on two compounds are retold here after article PMC5766510, “Development of a PET radioligand for potassium channels to image CNS demyelination” (Scientific Reports, 2018).

Data set [1] can be described thus: in vitro. The following applies: mouse, liver microsomes. (In general: Microsomes from liver hold many membrane-bound enzymes, among them those of drug oxidation.)
Data set [2] deals with K^+ channels in explanted mouse optic nerves. Description: Compound action potential (CAP) of dissected mouse optic nerves. Here is the method:
Therefore, we tested the effects of these compounds on the compound action potential (CAP) of dysmyelinated optic nerves from control and Shiverer mice (Fig. 2E).
Optic nerves were dissected from 12–16 week old Shiverer (Mbp^shi/shi) and control mice (Mbp^+/shi and Mbp^+/+). Compound action potentials (CAP) were recorded using suction electrodes as described by Stys et al.[91]. See SI for additional details.
CI95 = [Upper Limit. Lower Limit]; where Upper Limit = 10^(logEC50+s.d.) and Lower Limit = 10^(logEC50−s.d.). […]
Dissection of optic nerves: Optic nerves were dissected from 12-16 week old Shiverer (Mbpshi/shi) and control mice (Mbp+/shi and Mbp+/+). Mice were euthanized by CO2 overdose and the optic nerves were quickly dissected between the eyeball and the optic chiasm. The nerves […]
Optic nerve electrophysiology: Compound action potentials (CAP) from dysmyelinated nerves (Shiverer mice, Mbpshi/shi) and myelinated nerves (litermate controls, Mbp+/shi and Mbp+/+) were […]
between two suction electrodes (stimulus and recording electrodes) forming a tight seal on each end. Two additional electrodes were placed in the bath for reference. A supramaximal pulse (250 mV, 20 μs) was applied at the stimulating end of the nerve. The resulting CAP was amplified from the recording electrode using a high impedance low-noise amplifier (EG&G Princeton Applied Research Corporation) sampled at 100 kHz and filtered at 10 kHz. To assess […]
concentrations to the recording chamber after the CAP was allowed to stabilize for 5 min while […]
pulsing repeatedly. After each measurement, the chamber was washed for 5 min (flow 1 […]
mL/min) with oxygenated aCSF. […]
conduction and the temperature was monitored throughout the experiment. CAP recordings were acquired with a SBC6711 board (Innovative Integration) controlled by in-house written software. Analysis of the traces was done using an in-house software. The half-maximal […]
amplitude vs. concentration and fitted to the Hill equation using Origin. […]
Compound action potential of nerve recorded by suction electrode: a theoretical and experimental analysis. […]

For data set [3] the following is noted: mouse, 1 h.
The conditions of data set [4]: estimated; cited from earlier work.
A short description of data set [5]: Parallel artificial membrane permeability assay (PAMPA). Particulars: PAMPA. (In general: The PAMPA barrier holds no transporters, so it reflects passive diffusion.)
Data set [6] in a line: Partition coefficient octanol-water (logD). In kind it is physicochemical. The procedure: The partition coefficient octanol-water at pH 7.4 was measured by adding 0.1 mg of the compound to a 10 mL 50:50 mixture of octanol:PBS. The vial was shaken vigorously followed by 1 min centrifugation at 1,000 g to separate the phases. The drug concentration in each phase of the drug was calculated from the area under the peak on reverse phase HPLC (10 μL sample) using a calibration curve.

Data set [7] can be described thus: Organ distribution of PET tracer in mice by gamma counting. In kind it is in vivo. Particulars: mouse, 30 min post intravenous injection, n = 4. The procedure:
Once we had generated the ^18F-labeled drug, we evaluated the uptake of the tracer in mouse blood, brain, liver and kidneys 30 min and 2 h post intravenous administration using automatic gamma counting. […] The uptake in the brain 30 min post injection was higher than blood (standard uptake value (SUV) = 4.71 ± 0.81 vs. 3.27 ± 0.35, n = 4, P = 0.024) providing a suitable time window to conduct PET imaging studies.
50–60 uCi of the [^18F]3-F-4-AP tracer was injected via tail vein to eight 8-week-old female B6 albino mice. At the specified times, the mice were euthanized by anesthetic overdose. Following euthanasia blood was collected by cardiac puncture and transferred to EDTA coated tubes. Other organs (brain, liver and kidneys) were collected by dissection and transferred to glass tubes. Radioactivity was measured using an automatic gamma counter (^18F protocol) and corrected for organ weight and injected dose. Using the original tracer solution, 8 standard solutions ranging from 20 μCi to 10^−5 μCi were prepared, analyzed by gamma counting and used as a calibration curve to correlate peak area of the samples to concentration. SUV was calculated as SUV = (dose organ/organ weight)/(dose injected/body weight) with dose corrected for decay.

Data set [8] relates to voltage-gated K^+ channels. Description: PET imaging in healthy Rhesus macaques. In kind it is in vivo, Rhesus monkeys (macaca mulatta). Particulars: Rhesus macaques. The procedure: Whole body PET/CT imaging was carried out on a Siemens mCT PET/CT. Monkeys were sedated with ketamine and intubated. Following intubation monkeys were placed in prone position on the scanner bed face forward with their head immobilized in a stereotaxic frame. The animals were then anesthetized with 1% isoflurane and kept under anesthesia throughout the whole procedure. A CT image was acquired first (approx. 5 min). After the CT, 5 mCi in 8 mL of saline of [^18F]3-F-4-AP was infused as a bolus through the cubital vein. Scans were obtained in list mode and reconstructed with a 3D ordinary Poisson OSEM algorithm as 30 frames of data (2 × 15 secs, 4 × 30 secs, 8 × 60 secs, 8 × 120 secs, 8 × 240 secs). All activities were decay-corrected to the time of injection of the radiopharmaceutical. Reconstructed images were processed using VivoQuant. ROIs for the major organs were hand drawn based on the CT and used to calculate time-activity curves.
Focused high-resolution brain imaging in Rhesus macaques: brain PET imaging was carried out on a Siemens HRRT PET scanner. Monkeys were sedated with ketamine and intubated. Following intubation monkeys were placed in prone position on the scanner bed face forward with their head immobilized in a stereotaxic frame. The animals were then anesthetized with 1% isoflurane and kept under anesthesia throughout the whole procedure. Monkeys received 5 mCi of [^18F]3-F-4-AP as a bolus through the cubital vein. Scans were obtained in list mode and reconstructed with a 3D ordinary Poisson OSEM algorithm as […] frames of data (8 × 15 secs, 8 × 30 secs, 16 × 60 secs, 16 × 120 secs, 16 × 240 secs). All activities were decay-corrected to the time of injection of the radiopharmaceutical. Reconstructed images were processed using VivoQuant. The Rhesus brain atlas from VivoQuant was fitted to the data and used to calculate time-activity curves for 43 different brain regions.

Data set [9] concerns voltage-gated K^+ channels. Description: Detection of demyelination by PET in LPC-injected rats. It counts as in vivo, rat. Particulars: PET 0-25 min. The procedure: After conducting PET imaging with [^18F]3-F-4-AP in healthy rats, we sought to evaluate the capability of this tracer to detect demyelination using the LPC-injection model. The main advantages of this model are that the localization of the lesion is known, that the time course of demyelination is well established, that there is no inflammation or disruption of the BBB, and that the signal in the lesioned area can be directly compared to the contralateral control area[69]. […] Rats were injected with 3 μL of saline (control group) or 1% LPC in saline (demyelination group) on the right side of the cerebellum, targeting the cerebellar white matter. Seven days post injection, which corresponds to the peak of demyelination, the animals were scanned using PET (0–25 min). Several hours after the PET scan, the animals were reinjected with [^18F]3F4AP and their brains studied by ex vivo autoradiography as previously described. Finally, following autoradiography the same tissue sections were stained with LFB. To analyze the data, we placed a spherical voxel of ~1.5 mm radius centered at the injection coordinates and compared the signal in this region with that of an equal size region at the contralateral hemisphere (Fig. 6A). […] Furthermore, there was excellent correlation between PET, ex vivo autoradiography and histological staining for myelin (Fig. 6C). For one animal, we performed serial autoradiography and staining throughout the whole cerebellum (Sup. Fig. 2). As shown in this figure, it is possible to clearly delineate where the lesion starts and finishes based on the autoradiographic signal.
A power analysis (power 0.8, α = 0.05) based on the autoradiography results was used to determine the number of rats needed to detect a statistically significant change in signal. Randomly selected rats were injected with lysolecithin or saline intracranially as described above. 0–25 min dynamic PET scan was performed 6–8 days post intracranial injection (peak of demyelination) after administration of 0.3–0.5 μCi/g. Within 24 h of the PET scan, the rats received a second dose of tracer (1–2 uCi/g), the animals were sacrificed 25 min post injection and their brains processed for autoradiography as described above. Image analyst was not blind to the treatment group. Post autoradiography, LFB staining was performed to assess demyelination. Animals showing physical damage to the brain due to the injection were excluded from the study. Brain ROI analysis was performed using reference atlas with VivoQuant version 2.1 (inviCRO, LLC, Boston).

For data set [10], the system named is voltage-gated K^+ channels. Put plainly: PET/CT imaging in healthy rats. It counts as in vivo, rat. The source says:
In order to evaluate the potential use of [^18F]3-F-4-AP as a PET tracer for the brain, we conducted PET combined with computed tomography (PET/CT) imaging in healthy rats after tail vein injection of [^18F]3-F-4-AP (0.15–0.30 μCi/g). We chose rats instead of mice because their larger brain size allows better spatial resolution. […] In order to overcome the limited intrinsic resolution of PET, we conducted ex vivo autoradiography in rats injected with [^18F]3-F-4-AP (1–2 μCi/g).
PET/CT imaging studies were carried out on a Trifoil Triumph™ Trimodality Preclinical microPET/SPECT/CT Imaging System (Norridge, CA) equipped with a X-PET detector constructed from BGO crystals. Rats were anesthetized with a mixture of 2% isoflurane and […] and kept under anesthesia throughout the whole procedure. A CT image was acquired first (at 40 kV, 140-uA beam current, and 256 projections, approx. 5 min). After the CT, 50–150 µCi of [^18F]3-F-4-AP was infused as a bolus through a tail vein injection port and a 25, 30 or 90 min list-mode PET scan performed. PET data are acquired using a sensitivity 5.9%, 250- to 750-keV energy window and 12-ns timing window in list-mode format with spatial resolution of 1.6–2.0 mm (FWHM), which can be binned into 3-dimensional (3D) sinograms corresponding to total and true events, respectively. Images were reconstructed using Fourier rebinning followed by a 2-dimensional ordered-subsets expectation maximization algorithm (OSEM) (4 iterations with 15 subsets). Reconstructed images were processed by using VivoQuant (inviCRO, LLC, Boston) version 2.1. Time activity curves were generated by processing the PET data in 5 min frames.

Where [11] appears, read: LPC-injected rats, 7 days post injection, n = 4.
Where [12] appears, read: saline (vehicle only)-injected rats, n = 3.

Consider `Nc1ccncc1` [4-AP, 4-aminopyridine], for which the half-life in data set [1] came out at 53 ± 10 min. The “increases of the CAP amplitude” value in data set [2] (dysmyelinated nerves) is 2–4 fold. Moreover, the EC50 in [2] (increase of maximum CAP amplitude, dysmyelinated (Shiverer) optic nerves, 22.2 °C, read-out: Half-maximal effective concentration (EC50)) worked out at 59.2 µM. Further, the “increases in amplitude and duration of the action potential” value in data set [2] (normally myelinated nerves) is listed as less than 5%. In addition, in data set [3], the remaining in plasma is more than 90%. For the same compound, in data set [4], the “concentration in the cerebrospinal fluid of patients taking the drug” value is given as “around 50 nM”. The compound also had an apparent permeability coefficient (Papp) in data set [5] of 0.236 ± 0.003 ×10⁻⁶ cm/s. In addition, the “logD: experimental partition coefficient octanol:water” value in [6] (pH 7.4) turned out to be 0.21. In data set [6] (pH 7.4, logD: experimental partition coefficient octanol:water), this compound came in with a logD of 0.23.
In the case of `Nc1ccncc1[18F]` [[^18F]3-F-4-AP], in [7], the “standard uptake value (SUV) in blood” value worked out at 3.27 ± 0.35 and the “standard uptake value (SUV) in brain” value is 4.71 ± 0.81. In data set [8], the “peak SUV in selected brain regions” value is on record as 3.2–5.5 and the “time of peak SUV in selected brain regions” value is 2 to 5 min. The “peak SUV for the whole brain” value in data set [8] (within the first five minutes) is reported as “around 4”. Also, in data set [8] (lack of bone uptake), the “defluorination in vivo” value is listed as “not defluorinated in vivo”. In [9] (setting [11]), the “SUV, control side of cerebellum” value was 2.60 ± 0.21 and the “SUV, injected side of cerebellum” value is on record as 3.54 ± 0.53. Also, in [9] (setting [12]), the “SUV, control side of cerebellum” value is 2.67 ± 0.77 and the “SUV, injected side of cerebellum” value stood at 2.59 ± 0.78. Further, the “time of peak in brain time-activity curve” value in data set [10] (healthy rats, 0-90 min scan) was not above 5 min. In addition, in data set [10] (healthy rats, 0 to 30 min), the SUV in cerebellum is on record as 2.09 ± 0.44 and the SUV in cortex came to 3.24 ± 0.70. Also, in [10] (healthy rats, 0 to 30 min, n = 3), the “mean SUV for the whole brain” value is reported as 2.91 ± 0.65. Besides, in data set [10] (rats, no radioactivity in skull, teeth or bone), the “defluorination in vivo” value is given as “does not undergo defluorination in vivo”.

As usually defined, the half-life is the time in which the quantity being followed falls by half. Low values mean fast loss, high ones slow loss. As usually defined, the Papp is a coefficient for how fast a substance crosses the barrier. The low end stands for slow passage, the high end for fast passage. As usually defined, the logD is lipophilicity at a set pH, counting ionised and neutral species. High values mean higher lipophilicity, low ones lower lipophilicity.
